Laboratory results taken from patent publication US10538555B2, “Macrocyclic inhibitors of the PD-1/PD-L1 and CD80(B7-1)/PD-L1 protein/protein interactions” (BRISTOL-MYERS SQUIBB COMPANY, priority 2014, dated 2020).
Where a SMILES comes first, the peptide text is derived from it. Bridges are numbered along the chain shown (N, C = ends). [ ]: non-standard residue; d: D form. ξ: configuration not given here. Trp(βS-Me) = C[C@@H](c1c[nH]c2ccccc12)[C@H](N)C(=O)O; Phe(3,4,5-F3) = N[C@@H](Cc1cc(F)c(F)c(F)c1)C(=O)O; Trp(5-Cl) = N[C@@H](Cc1c[nH]c2ccc(Cl)cc12)C(=O)O; d(cisHyp) = O=C(O)[C@H]1C[C@@H](O)CN1; Hyp = O=C(O)[C@@H]1C[C@@H](O)CN1; NMeF = CN[C@@H](Cc1ccccc1)C(=O)O; dPip(4-aza) = O=C(O)[C@H]1CNCCN1; NMeNle = CCCC[C@H](NC)C(=O)O; NMeA = CN[C@@H](C)C(=O)O; Orn = NCCC[C@H](N)C(=O)O; Dab = NCC[C@H](N)C(=O)O; Dap = NC[C@H](N)C(=O)O; ξC = NC(CS)C(=O)O; Sar = CNCC(=O)O

molecular target: T1, Human PD-L1/PD-1 (Homo sapiens, UniProt Q9NZQ7); test: HTRF Human PD-L1/PD-1 binding assay (PD-1-Ig/PD-L1-His); details: PD-L1-His 10 nM, PD-1-Ig 20 nM; class symbol; read-out: HTRF Human PD-L1/PD-1 Binding Assay IC50 Range
T1 construct: TVMV protease cleavage site (C); made in house; host or cells: HEK293T cells
Summary of the method: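 Truncated Fc-fused human PD-1 (aa 25-167) at 20 nM and His-tagged PD-L1 (aa 18-239) at 10 nM final are used, with peptides preincubated 15 min with PD-L1. Detection uses europium-cryptate anti-Ig and APC anti-His antibodies; 665/620 nm ratio.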

T1 sequence (Q9NZQ7 with tags, fused parts or gaps): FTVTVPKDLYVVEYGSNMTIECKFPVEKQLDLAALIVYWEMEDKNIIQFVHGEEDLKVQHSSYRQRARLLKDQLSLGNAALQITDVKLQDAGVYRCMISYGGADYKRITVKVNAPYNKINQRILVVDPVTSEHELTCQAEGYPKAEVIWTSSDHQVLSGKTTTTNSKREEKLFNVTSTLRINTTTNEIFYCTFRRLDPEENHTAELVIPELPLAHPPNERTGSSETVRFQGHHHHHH

Row | IC50 [nM] | SMILES
1 | 1 to 9.9 | CCCC[C@H]1C(=O)N(C)[C@@H](CCCC)C(=O)N[C@@H](CC(C)C)C(=O)NC(C(=O)NCC(N)=O)CSCC(=O)N[C@@H](Cc2ccc(O)cc2)C(=O)N(C)[C@@H](C)C(=O)N[C@@H](CC(N)=O)C(=O)N2CCC[C@H]2C(=O)N[C@@H](CC(N)=O)C(=O)N[C@@H](CC(C)C)C(=O)N2CCC[C@H]2C(=O)N[C@@H](Cc2c[nH]c3ccccc23)C(=O)N[C@@H](CO)C(=O)N[C@@H](Cc2c[nH]c3ccccc23)C(=O)N1C (stereo partly drawn) [Example 9159] ({CH2CO}-Y[NMeA]NPNLPWSW[NMeNle][NMeNle]L[ξC]G-NH2; thioether N-14)
2 | 10 to 99.9 | CCCC[C@H]1C(=O)N(C)[C@@H](CCCC)C(=O)N[C@@H](CCCN)C(=O)N[C@H](C(=O)NCC(N)=O)CSCC(=O)N[C@@H](Cc2ccc(OC)cc2)C(=O)N(C)[C@@H](C)C(=O)N[C@@H](CCN)C(=O)N2CCC[C@H]2C(=O)N[C@@H](CN)C(=O)N[C@@H](CCC(=O)O)C(=O)N2C[C@H](O)C[C@H]2C(=O)N[C@@H](Cc2c[nH]c3ccccc23)C(=O)N[C@@H](CC(=O)O)C(=O)N[C@@H](Cc2c[nH]c3ccccc23)C(=O)N1C [Example 7105] ({CH2CO}-Y(Me)[NMeA][Dab]P[Dap]E[Hyp]WDW[NMeNle][NMeNle][Orn]CG-NH2; thioether N-14)
3 | 10 to 99.9 | CCCC[C@H]1C(=O)N2C[C@H](O)C[C@@H]2C(=O)N[C@@H](CC(=O)O)C(=O)N[C@@H](C(C)C)C(=O)N(C)[C@@H](Cc2ccccc2)C(=O)N[C@@H](CCC(=O)O)C(=O)N2CCNC[C@@H]2C(=O)N[C@@H](Cc2c[nH]c3ccccc23)C(=O)N[C@@H](Cc2ccc(O)cc2)C(=O)N[C@@H](CC(C)C)C(=O)N[C@H](C(=O)NCC(N)=O)CSCC(=O)N[C@@H](Cc2cc(F)c(F)c(F)c2)C(=O)N(C)[C@@H](Cc2ccccc2)C(=O)N1C [Example 10163] ({CH2CO}-[Phe(3,4,5-F3)][NMeF][NMeNle][d(cisHyp)]DV[NMeF]E[dPip(4-aza)]WYLCG-NH2; thioether N-13)
4 | 1 to 9.9 | CCCC[C@H]1C(=O)N(C)[C@@H](CCCC)C(=O)N[C@@H](CCC(=O)O)C(=O)N[C@H](C(=O)NCC(N)=O)CSCC(=O)N[C@@H](Cc2ccc(O)cc2)C(=O)N(C)[C@@H](C)C(=O)N[C@@H](CC(=O)O)C(=O)N2CCC[C@H]2C(=O)N[C@@H](CO)C(=O)N[C@@H](CC(C)C)C(=O)N2C[C@H](O)C[C@H]2C(=O)N[C@@H](Cc2c[nH]c3ccccc23)C(=O)N[C@@H](CCN)C(=O)N[C@@H](Cc2c[nH]c3ccccc23)C(=O)N1C [Example 5179] ({CH2CO}-Y[NMeA]DPSL[Hyp]W[Dab]W[NMeNle][NMeNle]ECG-NH2; thioether N-14)
5 | 10 to 99.9 | CCCC[C@H]1C(=O)N(C)CC(=O)N[C@@H](CC(=O)O)C(=O)N[C@@H](C(C)C)C(=O)N(C)[C@@H](Cc2ccccc2)C(=O)N[C@@H](Cc2ccc(O)cc2)C(=O)N(C)CC(=O)N[C@@H](Cc2c[nH]c3ccc(Cl)cc23)C(=O)N[C@@H](Cc2ccc(O)cc2)C(=O)N[C@@H](CC(C)C)C(=O)N[C@H](C(=O)NCC(N)=O)CSCC(=O)N[C@@H](Cc2ccccc2)C(=O)N(C)[C@@H](Cc2ccccc2)C(=O)N1C [Example 3236] ({CH2CO}-F[NMeF][NMeNle][Sar]DV[NMeF]Y[Sar][Trp(5-Cl)]YLCG-NH2; thioether N-13)
6 | 1 to 9.9 | CCCC[C@H]1C(=O)N(C)CC(=O)N[C@@H](CC(=O)O)C(=O)N[C@@H](C(C)C)C(=O)N(C)[C@@H](Cc2ccccc2)C(=O)N[C@@H](Cc2ccc(O)cc2)C(=O)N(C)CC(=O)N[C@@H]([C@@H](C)c2c[nH]c3ccccc23)C(=O)N[C@@H](Cc2ccc(O)cc2)C(=O)N[C@@H](CC(C)C)C(=O)N[C@H](C(=O)NCC(N)=O)CSCC(=O)N[C@@H](Cc2ccccc2)C(=O)N(C)[C@@H](Cc2ccccc2)C(=O)N1C [Example 10533] ({CH2CO}-F[NMeF][NMeNle][Sar]DV[NMeF]Y[Sar][Trp(βS-Me)]YLCG-NH2; thioether N-13)
